# From patent publication US20230173029A1, “TREATMENT OF CARDIAC REMODELLING” (UNIVERSITETET I OSLO, priority 2020, published 2023)
# Columns and labels:
# [1] = system: Dahl salt-sensitive (Dahl/SS) male rats; assay: Histochemistry of left ventricle collagen deposition (Masson's trichrome) and collagen cross-linking (Picrosirius Red); format: in vivo, rat; settings: HT Dahl/SS rats, 50 or 100 ng/kg/day s.c. (pooled), not significant, FIG. 2
# Experimental: (§1) A total of 29 adult Dahl salt-sensitive (Dahl/SS) male rats with an initial weight of 150 to 200 g were included in the study. Rats were purchased from Charles River Laboratories (USA) and housed in a room with a 12/12-hour light cycle, a temperature of 21° C., and a humidity of 55%. Rats were maintained on a normal salt diet up to seven weeks of age. Twenty-two Dahl/SS were then randomly switched to a high salt diet for 6 weeks to induce hypertension, whilst 7 rats were kept normotensive (NT) on normal salt diet. Drinking water and food was provided ad libitum.
# After 2 weeks of high salt diet, 15 hypertensive (HT) rats were started on treatment with proANP31-67. […]
# Hearts were excised, rinsed in PBS, quickly blotted on gauze, and then fixed in 10% formalin for a minimum of 24 hr. […] Stained sections were scanned (20× magnification) with AxioScan Z1 (Carl Zeiss), to obtain whole cross-sections for collagen quantification. Total fibrosis area (%) and perivascular fibrosis (ratio of the area of fibrosis surrounding the vessel wall to the lumen area) were quantified using ZEN2 blue edition (Zeiss, Jena, Germany). […] The degree of cross-linked collagen was calculated as the ratio between cross-linked collagen and total collagen. All histological quantifications were independently performed by three trained researchers blinded to rat groups.
# [2] = system: left ventricular cardiomyocytes; assay: Cardiomyocyte isolation and t-tubule structure (di-8-ANEPPS confocal imaging); format: in vivo, rat; settings: HT Dahl/SS rats, 50 or 100 ng/kg/day s.c. (pooled)
# Experimental: as §1
# After 2 weeks of high salt diet, 15 hypertensive (HT) rats were started on treatment with proANP31-67. Rats treated with proANP31-67 received one of two dosages: 50 ng/kg/day (n=8) or 100 ng/kg/day (n=7). A total of 14 rats received only vehicle: control rats on a normal salt diet (n=7); and HT rats on a high salt diet (n=7). Rats were randomly assigned to the 3 groups (i.e. control normal salt; high salt untreated; high salt plus treatment).
# Drug or vehicle was delivered via Alzet osmotic mini-pumps (Model 2004; mean pumping rate […], mean fill volume […]) implanted subcutaneously (as instructed by the manufacturer) for 28 days. Animals were treated with buprenorphine (0.05 mg/kg s.c.) as analgesic 30 minutes before and up to 1 day following implantation of pumps.
# A subset of rats was used for analyses of t-tubule structure in isolated left ventricular cardiomyocytes. These animals were anaesthetised as described above and euthanised by removal of the heart. […]
# Cardiomyocytes were then isolated as previously described (Frisk et al., American Journal of Physiology—Heart and Circulatory 307: H609-620, 2014). […] Fluorescence was excited at 488 nm and emitted light above 500 nm was measured. t-tubule captures were recorded with 1871×1871-pixel XY images, recorded as z-stacks (spatial resolution: 77×77×500 nm). […] Cell area, t-tubule density and distance to nearest t-tubule or sarcolemmal membrane were analysed as previously described (Frisk et al., Cardiovascular Research 112: 445-451, 2016).
# [3] = system: rat neonatal cardiomyocytes; assay: In vitro [3H]leucine incorporation in ANGII-stimulated neonatal cardiomyocytes; format: cell-based; settings: 24 h
# Experimental: Primary cultures of rat cardiomyocyte cells were prepared as previously described (Larsen et al., Cardiovascular Research 80(1): 47-54, 2008). In brief, hearts from 1-3 day old Wistar rats (Taconic), were isolated by […] and pancreatin digestion. Cardiomyocytes were separated from noncardiomyocytes by differential attachment to uncoated culture flasks (90151; Techno Plastic Products). Cardiomyocytes were allowed to attach to 6- or 12-well culture plates (Corning International, Corning, N.Y.) coated with gelatine/fibronectin (G-1890/F1141; Sigma, St. Louis, Mo.) overnight in plating medium (2 or 1 ml) at a density of 2.5×10^5 cells/ml medium [DMEM (41965; GIBCO-BRL, Invitrogen) supplemented with penicillin/streptomycin/glutamine (G6784; Sigma), medium 199 (31150; GIBCO-BRL), HEPES (15630; GIBCO-BRL), horse serum (14-703E; Bio-Whittaker, Lonza), and fetal calf serum (14-701E; Bio-Whittaker)]. […]
# 5 μCi/ml [3H]leucine (American Radiolabeled Chemicals) were added at the same time as ANG II and the cells were washed six times in 95% EtOH before being harvested in 0.2 M NaOH 24 h after stimulation, as previously described (Halvorsen et al., Journal of Lipid Research 39(4): 901-912, 1998). […] [3H]leucine incorporation was quantified by measuring counts per minute in duplicates from each sample with the Wallac Winspectral 1414 liquid scintillation counter (PerkinElmer). […]
substance,measurement,setting,value
"proANP31-67: Human proANP31-67, linear peptide fragment of proANP consisting of SEQ ID NO: 1; also known as vessel dilator, VSDL (EVVPPQVLSEPNEEAGAALSPLPEVPPWTGEVSPAQR; listed as Homo sapiens)",increase of interstitial LV fibrosis compared to NT rats,[1],14%
same,increase of perivascular LV fibrosis compared to NT rats,[1],35%
same,cardiomyocyte size,[2]; FIG. 3B,preserved
same,t-tubule density,[2]; FIG. 3C,normal
same,increase of maximal intracellular distance from each point in the cytosol to the nearest t-tubule or surface membrane,[2]; FIG. 3D,prevented
same,ANGII-induced hypertrophy as indexed by [3H]-leucine incorporation,"[3]; 37.5 ng/ml proANP31-67, 1 μM ANG II",prevented
same,ANGII-induced hypertrophy as indexed by [3H]-leucine incorporation,"[3]; 150 ng/ml proANP31-67, 1 μM ANG II",prevented
